Data from patent US7402402B2, “P38 MAPK pathway predicts endocrine-resistant growth of human breast cancer and provides a novel diagnostic and treatment target” (Baylor College of Medicine, priority 2001, dated 2008).

Key:
[1] = tested on: ER-positive MCF-7 human breast cancer cells; conditions: literature (Osborne et al., 1995), cited from earlier work
p38β = p38β (Homo sapiens, UniProt Q15759); assay: In vitro kinase assay of Example 3: p38β-induced phosphorylation of ER; format: biochemical; conditions: ERα and ERβ substrates
p38 MAPK [2] = assay: In vitro phosphorylation of Xenopus oocyte-expressed AIB1 by p38 MAPK; format: biochemical; conditions: Xenopus oocyte-expressed AIB1, FIG. 4 lane 4
p38 MAPK [3] = conditions: baculovirus-expressed ERα, FIG. 3A
[4] = tested on: ER-positive MCF-7 human breast cancer cells; assay: MCF-7 human breast cancer xenografts in athymic nude mice, tumor volume; format: in vivo; conditions: wild type MCF-7 xenografts, treatment from day 17, FIG. 2A; growth eventually resumes (Tam^R)
Description: The present inventors have developed an in vivo experimental model of tamoxifen resistance and resistance to estrogen deprivation in which ER-positive MCF-7 human breast cancer cells are inoculated subcutaneously into athymic nude mice [Osborne et al., 1987, Eur J Cancer Clin Oncol. 23(8):1189-1196; Osborne et al., 1991, J Natl Cancer Inst. 83(20):1477-1482]. […] This sequence of events is similar to that which occurs in patients. […] Since certain metabolites of tamoxifen have estrogenic properties, pharmacologic explanations for this tamoxifen-stimulated growth were investigated first.
ER-positive MCF-7 human breast cancer cells were grown as xenografts in athymic nude mice as described previously [Osborne et al., 1987, Eur J Cancer Clin Oncol. 23(8):1189-1196; Osborne et al., 1991, J Natl Cancer Inst. 83(20):1477-1482; Osborne et al., 1995, J Natl Cancer Inst 87:746-750]. Day 0 was the day of transplantation conducted and the day estrogen treatment began. These mice were treated with estrogen withdrawal (−E2) or tamoxifen (Tam) beginning on day 17. Tumor volume was measure every four days.

Sequence of p38β (Q15759 whole entry): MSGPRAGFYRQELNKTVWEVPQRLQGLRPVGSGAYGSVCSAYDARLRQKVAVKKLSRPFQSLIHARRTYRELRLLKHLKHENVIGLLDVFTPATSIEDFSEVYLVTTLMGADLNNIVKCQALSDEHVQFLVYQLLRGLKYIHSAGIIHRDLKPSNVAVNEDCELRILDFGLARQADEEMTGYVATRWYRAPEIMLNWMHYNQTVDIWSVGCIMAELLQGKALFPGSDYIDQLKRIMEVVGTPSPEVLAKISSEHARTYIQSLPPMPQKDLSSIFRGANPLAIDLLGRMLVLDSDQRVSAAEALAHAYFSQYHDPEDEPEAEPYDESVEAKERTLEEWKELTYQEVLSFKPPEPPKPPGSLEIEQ

C[C@]12CC[C@@H]3c4ccc(O)cc4C[C@@H](CCCCCCCCC[S+]([O-])CCCC(F)(F)C(F)(F)F)[C@H]3[C@@H]1CC[C@@H]2O (stereo partly drawn) [ICI 182,780]
growth of −E2^R and Tam^R resistant tumors ([1]; resistant xenograft tumors): can still be inhibited

C[S+]([O-])c1ccc(-c2nc(-c3ccncc3)c(-c3ccc(F)cc3)[nH]2)cc1 (stereo not drawn) [SB 203580]
p38β-induced phosphorylation of ER (p38β): can be inhibited | AIB1 phosphorylation by p38 MAPK (p38 MAPK [2]): inhibits AIBI phosphorylation | phosphorylation of ERα by p38 MAP kinase in the presence of inhibitor (p38 MAPK [3]): inhibited

CC/C(=C(\c1ccccc1)c1ccc(OCCN(C)C)cc1)c1ccccc1 [tamoxifen]
tumor growth in MCF-7 xenograft model ([1]; tumor growth later resumes despite continued treatment): suppresses tumor growth for several months | xenografted tumor growth (tumor volume over time) [4]: suppresses tumor growth for several months
